Here are results for four compounds from PMC9877316, “Identification of a novel P2X7 antagonist using structure-based virtual screening” (Frontiers in Pharmacology, 2023).

“Also recorded” adds a separate entry of the source. Like-named read-outs stand apart in the source and are kept apart here. A value given as a limit tells only on which side of the number the result lay.

One data set relates to mast cell degranulation. Set-up: method as in Villoutreix et al., 2011. Particulars: ref Villoutreix et al., 2011; read-out: IC50 for inhibiting mast cell degranulation; cited from earlier work.
In data set [1] the test system is tyrosine kinase Syk. The arrangement: method as in Villoutreix et al., 2011. Particulars: antibody displacement assay; ref Villoutreix et al., 2011; cited from earlier work.
In data set [2] the target is tyrosine kinase Syk. The arrangement: method as in Villoutreix et al., 2011. To be noted: ref Villoutreix et al., 2011; cited from earlier work.
A further data set is described as follows: Solubility observations. It is filed as physicochemical.
The target of another data set is T1, human P2X7 (Homo sapiens, UniProt Q99572).
T1 construct: expressed in transfected cells; host or cells: 1321N1 astrocytoma cells (compounds 1-17); HEK-293 cells stably expressing human P2X7 (gift of E. Adinolfi)
T1 sequence (Q99572 1-595): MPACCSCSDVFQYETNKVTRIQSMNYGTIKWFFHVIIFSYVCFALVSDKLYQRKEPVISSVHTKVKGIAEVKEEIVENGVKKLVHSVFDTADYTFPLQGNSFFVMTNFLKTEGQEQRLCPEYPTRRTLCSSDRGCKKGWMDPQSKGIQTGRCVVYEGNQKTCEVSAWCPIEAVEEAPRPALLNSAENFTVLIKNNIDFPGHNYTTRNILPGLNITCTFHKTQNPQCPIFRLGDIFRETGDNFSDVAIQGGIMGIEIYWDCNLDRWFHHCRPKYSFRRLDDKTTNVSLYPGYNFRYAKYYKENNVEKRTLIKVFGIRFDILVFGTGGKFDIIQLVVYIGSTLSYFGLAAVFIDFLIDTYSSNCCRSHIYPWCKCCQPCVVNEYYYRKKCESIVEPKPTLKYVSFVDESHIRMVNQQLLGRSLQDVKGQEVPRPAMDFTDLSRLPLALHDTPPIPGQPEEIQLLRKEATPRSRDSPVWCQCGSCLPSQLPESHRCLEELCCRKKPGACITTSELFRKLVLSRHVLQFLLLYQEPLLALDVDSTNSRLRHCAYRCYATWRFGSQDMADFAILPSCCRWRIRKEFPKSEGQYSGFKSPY
Description: ATP-induced YoPro-1 dye uptake assay, human P2X7. It is filed as cell-based. To be noted: for inhibition at 30 µM: P2X7, approx. % inhibition at 30 μM compound, 300 µM ATP, YoPro-1 uptake, 1321N1 (1-17) or HEK (18-33) cells, read-out: % Inhibition at hP2X7. The procedure: (§1) 1321N1 astrocytoma cells and HEK-293 cells were cultured (at 37°C, 5% CO2) in Dulbecco’s modified Eagle’s medium (DMEM/F-12 with Glutamax) supplemented with 10% foetal bovine serum (FBS) and 200 unit/ml of penicillin and streptomycin antibiotics (Fisher Scientific). For stable cell line generation, cells were transfected using FuGene HD Transfection Reagent (Promega) according to the manufacturer’s protocol with plasmids encoding either human P2X4 with a C-terminal (His)10 tag ([Young et al., 2008]), human P2X7 with a C-terminal EYMPME tag (kindly provided by R.A. North) or rat P2X7 C-terminally tagged with a GFP-(His)8 tag, generated by PCR amplification of the coding sequence for rat P2X7 from a pcDNA-based expression vector ([Young et al., 2007]), adding XhoI and EcoRI sites at the 5′- and 3′- ends respectively, followed by restriction digestion and ligation into a zebrafish P2X4-GFP expression vector based on pEGFP-C1 (kindly provided by Eric Gouaux; [Kawate and Gouaux, 2006]) to replace the zebrafish P2X4 coding region with rP2X7. Transfected clones were grown in DMEM/F-12 with Glutamax medium supplemented with G-418 (Geneticin®, Fisher Scientific), 600 μg/ml and 150 μg/ml during selection and maintenance respectively. […] HEK-293 cells stably expressing human P2X7 ([Adinolfi et al., 2010]) were a kind gift from Elena Adinolfi.
(§2) Cells were plated as for the calcium influx assay (Section 2.4). Culture medium was replaced with low divalent cation containing extracellular solution (ECS-LD; 147 mM NaCl, 10 mM HEPES, 13 mM Glucose, .2 mM CaCl2, 2 mM KCl. pH = 7.4 in MilliQ water) and 5 μM Yopro-1. […] The baseline was measured with a BMG Clariostar instrument for 5–10 cycles, followed by addition of ATP (or BzATP) and recording for at least 30 further cycles (approx. 1 min per data point). The collected responses were normalized to the first data-point recorded after ATP addition. The initial gradient of the dye uptake curve was used to calculate the response to ATP.
The antagonist activity of the 17 compounds (applied at 10 µM) was assayed initially on 1321N1 astrocytoma cells stably expressing human P2X4 receptors by measuring the ATP-induced (applied at 1.2 µM) increase in Fluo-4 fluorescence due to calcium influx via P2X4, using 2 µM BX430 as a positive control (Figure 1A). […] The ATP-induced rate of uptake of YoPro-1 dye was measured upon application of at 300 µM ATP, using .1 µM A740003 as a positive control (Figure 1B).
A small library of 16 commercially available compounds was selected according to the presence of the same scaffold as GP-25, (70% similarity, Tanimoto index) and/or presence of at least one functional group we hypothesized could contribute to GP-25 activity (e.g. carboxylic acid, halogen substituent to the aromatic ring, ester, etc.) (Compounds 18–33; Table 1). […] Although the number of compounds tested was limited by their availability via a commercial source, the numerous ‘hits’ allowed for a basic structure-relationship (SAR) analysis.

For the next data set, the target named is T2, rat P2X7 (Rattus norvegicus, UniProt Q64663).
T2 construct: expressed in transfected cells; host or cells: HEK-293 cells stably expressing rat P2X7-GFP (patch clamp)
T2 sequence (Q64663 1-595): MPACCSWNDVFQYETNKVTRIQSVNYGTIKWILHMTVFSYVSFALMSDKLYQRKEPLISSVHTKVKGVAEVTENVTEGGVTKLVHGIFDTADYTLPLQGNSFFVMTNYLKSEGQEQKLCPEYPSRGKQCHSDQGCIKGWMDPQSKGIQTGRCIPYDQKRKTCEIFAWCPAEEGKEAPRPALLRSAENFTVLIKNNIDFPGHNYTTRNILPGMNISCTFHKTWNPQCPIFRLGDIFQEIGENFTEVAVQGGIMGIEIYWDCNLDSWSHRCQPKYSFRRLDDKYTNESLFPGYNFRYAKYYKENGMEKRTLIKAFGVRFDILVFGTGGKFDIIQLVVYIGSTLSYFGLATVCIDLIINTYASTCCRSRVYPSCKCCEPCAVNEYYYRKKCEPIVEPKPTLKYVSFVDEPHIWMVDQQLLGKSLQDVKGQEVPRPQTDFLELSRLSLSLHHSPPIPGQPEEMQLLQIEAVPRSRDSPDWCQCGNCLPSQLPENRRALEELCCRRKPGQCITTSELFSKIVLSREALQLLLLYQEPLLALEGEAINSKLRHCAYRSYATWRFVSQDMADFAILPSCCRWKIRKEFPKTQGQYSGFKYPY
Description: ATP/BzATP-induced YoPro-1 dye uptake assay, rat P2X7. It is filed as cell-based. To be noted: for inhibition at 30 µM: approx. % inhibition at 30 μM compound, 300 µM ATP, YoPro-1 uptake, rat P2X7-GFP, read-out: % Inhibition at rP2X7. The procedure:
as §1, §2
In order to confirm GP-25 as a competitive (orthosteric) antagonist, BzATP concentration-response curves (ranging between 300 μM and .03 µM) were constructed for rat P2X7-GFP in the YoPro-1 uptake assay in the presence of increasing concentrations of GP-25 (Figure 3A).

Usually IC50 stands for the concentration at which inhibition is half-maximal. Usually Kd stands for the concentration at which binding is half-saturated. A word on the inhibition: it is the share of the control response that was lost under treatment.

On to `CCOC(=O)C1=C(C)NC2=C(C(=O)c3ccccc32)C1c1cc(Br)ccc1OCC(=O)O` (centres unmarked) [Chembridge ID 6422575, (4-bromo-2-[3-(ethoxycarbonyl)-2-methyl-5-oxo-4,5-dihydro-1H-indeno[1,2-b]pyridin-4-yl]phenoxy) acetic acid], for which the IC50 with mast cell degranulation is not below 20 µM. In the data set on tyrosine kinase Syk [1], the “inhibition of antibody binding” value is listed as 81%. In addition, the Kd on tyrosine kinase Syk [2] is 6.2 µM.
Regarding `CCSc1nnc(NC(=O)CSc2nnc3c4ccccc4n(C)c3n2)s1` [Compound 7], the solubility entry in the data set “Solubility observations” is “very low solubility”.
As for `COC(=O)C1=C(C)NC2=C(C(=O)c3ccccc32)C1c1ccc(-c2cc([N+](=O)[O-])ccc2Cl)o1` (centres unmarked) [Compound 22], the solubility entry in “Solubility observations” (listed as GP-50) is listed as “less soluble than GP-47 or GP-25; also recorded: low solubility”. The “reduction in ATP-induced dye uptake at human P2X7” value at human P2X7 (30 µM compound, 300 μM ATP) is “statistically significant reduction”. Besides, the inhibition at 30 µM is 69% at human P2X7 and less than 0% on rat P2X7. Moreover, the “antagonist activity at rat P2X7” value at rat P2X7 (30 µM compound, 300 μM ATP) is reported as “no activity”.
Consider `CC(=O)C1=C(C)NC(=S)NC1c1cc(Br)ccc1OCC(=O)O` (centres unmarked) [Compound 33], for which the results for the inhibition at 30 µM at human P2X7 and at rat P2X7 were 18% and 16%, respectively.
